Measurements taken from article PMC11091888, “Evaluation of Fusobacterium nucleatum Enoyl-ACP Reductase (FabK) as a Narrow-Spectrum Drug Target” (ACS Infectious Diseases, 2024).
In brackets after ≈: the same amount, converted by molar mass. Read-outs that look alike come from different tables or passages of the source.

How the values were obtained:
F. nucleatum 23726 [1] = experiment: MIC against F. nucleatum 23726; format: cell-based, Fusobacterium nucleatum; conditions: three biological replicates; for MIC Fn 23726: F. nucleatum 23726 wild-type
Method: (§1) Compounds were twofold serially diluted (100–0.2 μg/mL) across a 96-well plate in 100 μL of media used for the specific organism (Table S4). For anaerobes, plates were incubated anaerobically at 37 °C for 1 h and then inoculated with approximately 10^5 to 10^6 CFU/well. Plates were incubated at 37 °C for up to 48 h, and MICs were read by visual inspection.

E. faecalis FA2–2ΔfabI = experiment: MIC against E. faecalis FA2-2 fabK+ (ΔfabI, possesses only FabK); format: cell-based, Enterococcus faecalis; conditions: for MIC Ef fabK+: E. faecalis FA2-2 ΔfabI, possesses only FabK
Method: as §1

E. faecalis FA2–2ΔfabK = experiment: MIC against E. faecalis FA2-2 fabI+ (ΔfabK, possesses only FabI); format: cell-based, Enterococcus faecalis; conditions: E. faecalis FA2-2 ΔfabK, possesses only FabI
Method: as §1

E. faecalis FA2–2 = experiment: MIC against wild-type E. faecalis FA2-2 (FabI and FabK); format: cell-based, Enterococcus faecalis; conditions: E. faecalis FA2-2, possesses both FabI and FabK
Method: as §1

[2] = Cytotoxicity against Vero cells (resazurin viability); format: cell-based; conditions: monkey, Vero epithelial cells, maximum tested concentration 100 μg/mL
Method: This was done as described[36] using colorectal carcinoma HCT116 and Vero epithelial cells cultured at 37 °C in 5% CO2 in Dulbecco’s modified Eagle’s medium (DMEM) with 4.5 g/L glucose and L-glutamine. The medium was supplemented with 10% v/v FetalGro (Rocky Mountain Biologicals). Approximately 25,000/well were aliquoted into black 96-well plates (Greiner Bio-One) and incubated overnight, before being resuspended in DMEM supplemented with 20% Gibco KnockOut Serum Replacement (Thermo Fisher Scientific). Compounds (100–1.6 μg/mL) were then added to the cells and incubated for 24 h at 37 °C and 5% CO2. Cell viability was analyzed using resazurin as described.[36]

[3] = test system: F. nucleatum 23726 overexpression strains; experiment: MIC against F. nucleatum 23726 transformed with empty vector, fabK or fabX under ATc-inducible promoter; format: cell-based, Fusobacterium nucleatum; conditions: Fusobacterium nucleatum
Method: The transformation of F. nucleatum 23726 was performed via electroporation as previously described,[41] except that Columbia broth was used. (i) Antisense vector: F. nucleatum gene silencing vector, pHFK2, was developed by inserting the ATc inducible paired-termini antisense sequences from the clostridial vector pMSPT into pCWU6, a F. nucleatum vector.[56] pCWU6 was amplified by PCR (CloneAmp polymerase) and recombined with the BamHI and KpnI fragments of pMSPT containing the Tet promoter and paired-termini sequences.[26] Antisense nucleotides targeting either 50 bp upstream and downstream of the fabK start codon (FabKAS1) or 25 bp upstream and 75 bp downstream (FabKAS2) were cloned into SphI and XhoI restriction sites of pHFK2. (ii) Complementation vectors: these were generated by PCR amplifying the fabK promoter and gene and introducing KpnI and HindIII restriction sites at 5′ and 3′ ends, respectively. Purified PCR amplicons were inserted into the KpnI and HindIII sites of pCWU6. (iii) Overexpression vectors: the corresponding gene, fabK or fabX, was amplified via PCR, introducing HindIII or SacI restriction sites to the 5′ end, respectively. BamHI restriction sites were introduced to the 3′ end of both. Purified PCR amplicons were inserted into the respective restriction sites of pHFK2. (iv) Allelic exchange vector: vector, pCWU8-FabK, was generated using a previously described protocol,[41],[56] whereby 1-kb regions upstream and downstream of fabK were cloned into the suicide vector pCWU8 using a Gibson Assembly Cloning Kit (New England Biolabs). The recombinant vector was transformed into strain F. nucleatum 23726ΔgalK, and successful integrants were collected that were resistant to thiamphenicol (5 μg/mL). Since the suicide vector expresses GalK, which is toxic in the presence of 2-deoxy-D-galactose (2-DG), the compound 2-DG (0.25% w/v) was added to counter-select for mutants that underwent a second homologous recombination. Ten resulting colonies were then tested for deletion of fabK via PCR, using primers in Table S7. The experiment was independently performed twice for a total of 20 colonies screened for fabK deletion. All experiments were done anaerobically at 37 °C in tryptic soy broth supplemented with 1% w/v peptone and 0.25% w/v autoclaved L-cysteine hydrochloride (TSPC) or TSPC agar with thiamphenicol or 2-DG.
as §1

F. nucleatum 23726 [4] = experiment: Growth in FAS-II inhibitor with or without exogenous fatty acids; format: cell-based, Fusobacterium nucleatum; conditions: fatty acid mixture of Table S2
Method: To plates containing twofold serial dilutions of compounds, exponential phase cultures were added to a final OD600nm of 0.1. Plates containing F. nucleatum in Columbia broth were incubated at 37 °C inside of a Tecan Infinite 200 Pro, which was inside an anaerobic chamber; growth kinetics for Streptococcus spp. in brain heart infusion broth were done aerobically in the same Tecan instrument.

FnFabK = FnFabK (Fusobacterium nucleatum subsp. nucleatum, UniProt Q8RGV3); experiment: biochemical; conditions: for IC50: IC50 against FnFabK
Method: Incubation lasted for a total of 10 min before the addition of crotonyl-CoA substrate, and the reaction was initiated by the addition of NADH for a final assay volume of 100 μL. The oxidation of NADH to NAD+ was measured by tracking fluorescence (340 nm/460 nm) with a Biotek Synergy H1 microplate reader in 15 s intervals for a total of 10 min to monitor the rate of reaction. The reaction was conducted in Greiner Bio-One 384-well μClear Bottom Polystyrene Microplates. […] Measurements were conducted in triplicate, and IC50’s were calculated via GraphPad Prism 9.1.2 using four-parameter logistic (Hill) curve analysis using equation Y = bottom + (top – bottom)/[1 + 10 (Log IC50 – X) × Hill Slope], where X is the logarithm of the dose and Y is the response. The assay concentrations of the cofactor, NADH, and substrate, crotonyl-CoA, were also determined via GraphPad Prism 9.1.2 using the substrate inhibition model to determine Km(app).

CdFabK = test system: CdFabK; set-up: method as in PMID 37224699; conditions: previously reported, cited from earlier work

Sequence of FnFabK (Q8RGV3 entry or part of it): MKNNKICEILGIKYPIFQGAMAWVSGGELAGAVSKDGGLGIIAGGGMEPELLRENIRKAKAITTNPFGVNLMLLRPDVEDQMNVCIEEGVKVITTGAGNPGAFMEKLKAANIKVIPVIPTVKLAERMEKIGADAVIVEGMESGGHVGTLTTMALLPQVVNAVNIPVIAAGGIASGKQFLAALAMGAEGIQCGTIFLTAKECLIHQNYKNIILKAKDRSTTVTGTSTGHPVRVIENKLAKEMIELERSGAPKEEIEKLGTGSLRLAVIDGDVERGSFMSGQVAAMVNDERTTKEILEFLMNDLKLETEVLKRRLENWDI

| SMILES | MIC Fn 23726 (F. nucleatum 23726 [1]) [µg/mL] | MIC Ef fabK+ (E. faecalis FA2–2ΔfabI) [µg/mL] | MIC Ef fabI+ (E. faecalis FA2–2ΔfabK) [µg/mL] | MIC Ef wild-type (E. faecalis FA2–2) [µg/mL] | also measured |
| --- | --- | --- | --- | --- | --- |
| O=C(NCc1nc(-c2ccc(Br)cc2)c[nH]1)Nc1ncc(Sc2ccc(Cl)cn2)s1 [Compound 682] | 3.1 (≈ 5.94 µM) | <0.1 | 100 (≈ 192 µM) | 100 (≈ 192 µM) | – |
| O=C(NCc1nc(-c2ccc(Br)cc2)c[nH]1)Nc1ncc(Sc2ccc(C(F)(F)F)cn2)s1 [Compound 684] | 3.1 (≈ 5.58 µM) | <0.1 | 100 (≈ 180 µM) | 100 (≈ 180 µM) | – |
| O=C(NCc1nc2ccccc2[nH]1)Nc1ncc(Sc2ccccn2)s1 [Compound 675] | 100 (≈ 261 µM) | 0.8 (≈ 2.09 µM) | 100 (≈ 261 µM) | 100 (≈ 261 µM) | – |
| CCOc1ccc2sc(NC(=O)NCc3nc(-c4ccc(Br)cc4)c[nH]3)nc2c1 [Compound 690] | 25 (≈ 52.9 µM) | <0.1 | 25 (≈ 52.9 µM) | 25 (≈ 52.9 µM) | – |
| O=C(NCc1nc(-c2ccc(Br)cc2)c[nH]1)Nc1ncc(Sc2nc3ccccc3s2)s1 [Compound 703] | 100 (≈ 184 µM) | <0.1 | 100 (≈ 184 µM) | 100 (≈ 184 µM) | – |
| O=C(NCc1nc(-c2ccc(Br)cc2)c[nH]1)Nc1nc2ccc(Br)cc2s1 [Compound 671] | 25 (≈ 49.3 µM) | <0.1 | 50 (≈ 98.6 µM) | 50 (≈ 98.6 µM) | – |
| O=C(NCc1nc(-c2ccccc2)n[nH]1)Nc1ncc(Sc2ccccn2)s1 [Compound 676] | 100 (≈ 244 µM) | 0.2 (≈ 0.488 µM) | 100 (≈ 244 µM) | 100 (≈ 244 µM) | – |
| COc1cccc2c1C(=O)c1c(O)c3c(c(O)c1C2=O)C[C@@](O)(C(=O)CO)C[C@@H]3O[C@H]1C[C@H](N)[C@H](O)[C@H](C)O1 [doxorubicin, reference compound] | – | – | – | – | IC50 at 24 h [2]: 8.1 ± 1 µg/mL (≈ 14.9 µM) |
| O=C(NCc1nc(-c2ccc(Br)cc2)c[nH]1)Nc1ncc(Sc2ccc(Br)cc2)s1 [Compound 702] | 100 (≈ 177 µM) | <0.1 | 100 (≈ 177 µM) | 100 (≈ 177 µM) | – |
| O=C(NCc1nc(-c2ccc(Br)cc2)c[nH]1)Nc1ncc(Sc2ncccc2C(F)(F)F)s1 [Compound 683] | 3.1 (≈ 5.58 µM) | <0.1 | 100 (≈ 180 µM) | 100 (≈ 180 µM) | – |
| O=C(NCc1nc(-c2ccc(Br)cc2)c[nH]1)Nc1ncc(Sc2ccc3ccccc3n2)s1 [Compound 680] | 100 (≈ 186 µM) | <0.1 | 100 (≈ 186 µM) | 100 (≈ 186 µM) | – |
| O=C(NCc1nc(-c2ccc(Br)cc2)c[nH]1)Nc1ncc(Sc2ncccn2)s1 [Compound 679] | 6.3 (≈ 12.9 µM) | <0.1 | 100 (≈ 205 µM) | 100 (≈ 205 µM) | – |
| O=C(NCc1nc(-c2ccc(Br)cc2)c[nH]1)Nc1nc2cc(Cl)ccc2s1 [Compound 689] | 6.3 (≈ 13.6 µM) | <0.1 | 25 (≈ 54 µM) | 25 (≈ 54 µM) | – |
| C=C/C(C)=C/[C@@]1(C)SC(=O)C(C)=C1O [thiolactomycin, reference compound] | – | – | – | – | MIC ([3]; read-out: MIC, FabK overexpression, induced): 3.9 µg/mL; MIC ([3]; read-out: MIC, FabK overexpression, uninduced): 7.8 µg/mL; MIC ([3]; read-out: MIC, FabX overexpression, induced): 3.9 µg/mL; MIC ([3]; read-out: MIC, FabX overexpression, uninduced): 7.8 µg/mL; MIC ([3]; read-out: MIC, empty vector, induced): 7.8 µg/mL; MIC ([3]; read-out: MIC, empty vector, uninduced): 7.8 µg/mL; Effect of exogenous fatty acids on growth inhibition of F. nucleatum (F. nucleatum 23726 [4]): did not rescue |
| O=C(NCc1nc(-c2ccc(Br)cc2)c[nH]1)Nc1nc2ccccc2s1 [Compound 701] | – | – | – | – | IC50 (FnFabK; equivalent concentration, conversion of the μM value): 10.7 µM; IC50 (FnFabK; purified FnFabK, three replicates): 10.6 µM; Hill coefficient (FnFabK inhibition) (FnFabK; four-parameter logistic fit): 1.06; MIC (F. nucleatum 23726 [1]; Fusobacterium nucleatum, 23726, F. nucleatum 23726 wild-type, read-out: MIC Fn 23726): 1.6 µg/mL (≈ 3.74 µM); IC50 against CdFabK, equivalent concentration (CdFabK): 0.8 µg/mL; IC50 (CdFabK; read-out: IC50 against CdFabK): 1.88 µM; MIC (E. faecalis FA2–2ΔfabI; Enterococcus faecalis, read-out: MIC Ef fabK+, E. faecalis FA2-2 ΔfabI, possesses only FabK): < 0.1 µg/mL; MIC (E. faecalis FA2–2; Enterococcus faecalis, read-out: MIC Ef wild-type): 100 µg/mL (≈ 233 µM) |
| O=C(NCc1nc(-c2ccc(Br)cc2)c[nH]1)Nc1nc2ccc(F)cc2s1 [Compound 670] | 100 (≈ 224 µM) | <0.1 | 100 (≈ 224 µM) | 100 (≈ 224 µM) | – |
| O=C(NCc1nc(-c2ccc(Br)cc2)c[nH]1)Nc1nc2c(F)cc(F)cc2s1 [Compound 674] | 100 (≈ 215 µM) | <0.1 | 100 (≈ 215 µM) | 100 (≈ 215 µM) | – |
